According to BindingDB's records for doi:10.1002/ps.1855 (2010):

Biological target: Cytochrome b6-f complex subunit 4 (Spinacia oleracea, UniProt P00166)
Assay: Inhibition of photosynthetic electron transport protein complex in Spinacia oleracea (spinach) leaf thylakoid membranes measured at 30 seconds intervals for 10 min

Cytochrome b6-f complex subunit 4, sequence (P00166 whole entry, one chain of several): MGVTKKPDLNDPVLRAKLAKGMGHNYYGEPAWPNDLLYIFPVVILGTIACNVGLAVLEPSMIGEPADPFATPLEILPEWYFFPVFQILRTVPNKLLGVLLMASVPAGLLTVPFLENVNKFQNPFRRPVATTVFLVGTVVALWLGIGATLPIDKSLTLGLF

IC50	Compound
> 200 µM	O=C1O/C(=C\c2ccc(O)cc2)C=C1Cc1ccccc1
8.3 µM	O=C1O/C(=C\c2ccc(C(F)(F)F)cc2)C=C1Cc1ccccc1
1.7 µM	O=C1O/C(=C\c2ccc([N+](=O)[O-])cc2)C=C1Cc1ccccc1
> 200 µM	O=C1O/C(=C\c2ccccc2O)C=C1Cc1ccccc1
> 200 µM	O=C1O/C(=C\c2ccc(Br)cc2)C=C1Cc1ccccc1
23.5 µM	Cc1ccccc1/C=C1/C=C(Cc2ccccc2)C(=O)O1
53.7 µM	COc1ccc(/C=C2/C=C(Cc3ccccc3)C(=O)O2)cc1
> 200 µM	N#Cc1ccc(/C=C2/C=C(Cc3ccccc3)C(=O)O2)cc1
> 200 µM	O=C1O/C(=C\c2ccc(-c3ccccc3)cc2)C=C1Cc1ccccc1
> 200 µM	O=C1O/C(=C\c2cccc(O)c2)C=C1Cc1ccccc1
> 200 µM	Cc1ccc(/C=C2/C=C(Cc3ccccc3)C(=O)O2)cc1
> 200 µM	O=C1O/C(=C\c2ccc3c(c2)OCO3)C=C1Cc1ccccc1
10 µM	O=C1O/C(=C\c2cccc(C(F)(F)F)c2)C=C1Cc1ccccc1
10.1 µM	O=C1O/C(=C\c2ccccc2F)C=C1Cc1ccccc1
19.4 µM	COc1ccc(OC)c(/C=C2/C=C(Cc3ccccc3)C(=O)O2)c1
19.7 µM	O=C1O/C(=C\c2ccccc2)C=C1Cc1ccccc1
> 200 µM	N#Cc1cccc(/C=C2/C=C(Cc3ccccc3)C(=O)O2)c1
> 200 µM	O=C1O/C(=C\c2ccc(Cl)cc2)C=C1Cc1ccccc1
> 200 µM	COc1ccc(/C=C2/C=C(Cc3ccccc3)C(=O)O2)cc1O
11.8 µM	O=C1O/C(=C\c2ccccc2C(F)(F)F)C=C1Cc1ccccc1

Biological target: not listed separately
Assay: Inhibition of photosynthetic electron transport protein complex in Spinacia oleracea (spinach) leaf thylakoid membranes measured at 30 seconds intervals for 10 min

IC50	Compound
20.5 µM	O=C1O/C(=C\c2cccc(F)c2)C=C1Cc1ccccc1
12.7 µM	COc1cc(OC)c(/C=C2\C=C(Cc3ccccc3)C(=O)O2)c(OC)c1
> 200 µM	CN(C)c1ccc(/C=C2/C=C(Cc3ccccc3)C(=O)O2)c(Cl)c1
170 µM	O=C1O/C(=C\c2cccc(Br)c2)C=C1Cc1ccccc1
> 200 µM	CN(C)c1ccc(/C=C2/C=C(Cc3ccccc3)C(=O)O2)cc1
44.7 µM	O=C1O/C(=C\c2cccc(Cl)c2)C=C1Cc1ccccc1
25.8 µM	O=C1O/C(=C\c2ccccc2Br)C=C1Cc1ccccc1
13.3 µM	CN(C)c1cccc(/C=C2/C=C(Cc3ccccc3)C(=O)O2)c1
75.2 µM	O=C1O/C(=C\c2c(F)c(F)c(F)c(F)c2F)C=C1Cc1ccccc1
9.1 µM	CCc1ccc(/C=C2/C=C(Cc3ccccc3)C(=O)O2)cc1
19.1 µM	O=C1O/C(=C\c2ccccc2Cl)C=C1Cc1ccccc1
21.9 µM	O=C1O/C(=C\c2ccc(F)cc2)C=C1Cc1ccccc1
73.8 µM	Cc1cccc(/C=C2/C=C(Cc3ccccc3)C(=O)O2)c1
23.1 µM	O=C1O/C(=C\c2cccc([N+](=O)[O-])c2)C=C1Cc1ccccc1
